Results taken from patent US20120202287A1, “Stem Cell Culture Methods” (priority 2009, published 2012).
“Also recorded” adds a separate entry of the source.

Legend:
[1] = Solubility in 5% DMSO-water; format: physicochemical
hESCs (SA121) = assay: Feeder-free culture of hESCs without exogenous FGF, supplemented with EHNA; format: cell-based, human
Method: Cells were grown on fibronectin coated dishes. A fibronectin (Calbiochem) solution (0.1 mg/ml) (diluted in PBS) is used to coat the tissue culture dishes for 15 mins at 37 C.
The fully supportive media used to culture the stem cells was a 1:1 mixture of defined media (see below) and conditioned vitrohES. vitrohES media was conditioned for 24 hours on a layer of mitotically inactivated mouse embryonic fibroblasts plated at 4×10^5 cells/ml of conditioned media. Passaging was performed first by removing the media from the cells and washing with PBS. Trypsin (sourced from Invitrogen) was added to the cells and incubated for 1-2 mins at room temperature. Fresh media was added to neutralize the cells and then gently scraped off using a cell scraper and passaged 1 in 4 to fibronectin coated dishes.
After washing with PBS, cells were fixed in 4% paraformaldehyde (Sigma) for 10 mins at room temperature and washed again. Cells were then permeabilised in ethanol for 2 minutes. Blocking was performed in 10% Goat serum (sigma)/PBS (Invitrogen) for one hour at room temperature. The following primary antibodies (dilutions in brackets) were then incubated for 1 hour at room temperature diluted in blocking solution: mouse anti-POU5F1 (Santa cruz) (1:250), rabbit anti-PAX6 (Chemicon) (1:1000), mouse anti B-tubulin III (Sigma) (1:1000), mouse anti-Alpha-feta-protein (AFP) (Sigma) (1:400), mouse anti-muscle-specific actin (SMA) (Dako) (1:50), SSEA1 (Hybdridoma bank University of IOWA) (1:5), SSEA3 (Hybdridoma bank University of IOWA) (1:5), SSEA4 (Hybdridoma bank. University of IOWA) (1:5), Tra1-60 (Santa cruz) (1:200) and Tra1-80 (Santa Cruz) (1:200). […] All immunofluorescence was visualised and captures using Zeiss Axiovision image analysis system (http://www.ziess.com).
(§1) hESCs (SA121) were placed into standard feeder free conditions without exogenous FGF (including conditioned media made without addition of exogenous FGF) but supplemented with 10 μM EHNA. Cells were initially seeded from a trypsin passage of a standard, FGF containing, feeder free culture (passage 33 post feeder free; p100 total).
Controls were also set up without FGF or EHNA. Three lines were set up to grow independently for each condition and these were routinely passaged using trypsin as normal. Passaging was usually a 1 in 4 split approximately every 4 days.
as §1, with “A further culture of SA121 was transferred to” for “hESCs (SA121) were placed into”, “7” for “33”, “p 48” for “p100”

hESC line SA461 = assay: hESC line transferred directly from MEF feeders to feeder-free culture without FGF, supplemented with EHNA; format: cell-based, human; details: passage 7, 10 uM EHNA, no exogenous FGF
Method: A culture of the hESC line SA461 was transferred from a supportive MEF feeder layer directly, using manual dissection, to standard feeder free conditions in the absence of exogenous FGF but supplemented with 10 uM EHNA. A control was also grown with neither FGF nor EHNA present. Cells were subsequently passaged by the standard trypsin feeder free technique. It was determined by passage 7 that the EHNA containing cultures were almost 100% positive for POU5F1 whereas positive staining in the cultures absent for FGF and EHNA was minimal (FIG. 8).

SA121 hESCs = assay: General (monolayer) differentiation on matrigel in defined media, qRT-PCR of stem cell and differentiation markers after 14 days; format: cell-based, human; parameters: key to Full EHNA effect: those which maintained at least 50% of the level of NANOG-expression in comparison to EHNA and those that inhibited the expression of PAX6 to 50% or less than the value untreated controls were considered to have an EHNA-like effect; details: 14 days, qRT-PCR
Method: In order to ascertain the efficacy of the compounds of the present invention, each compound was tested to determine whether it can maintain the stem cell marker NANOG and/or block the differentiation marker PAX6 in the face of differentiating conditions in a manner similar to EHNA. Cells enzymatically passaged onto matrigel-coated dishes and grown for 2 weeks in defined media with or without (control) compound addition were analysed by qRT-PCR to determine the level of NANOG and PAX6 expression.
For general differentiation experiments cells were passaged with trypsin onto matrigel coated twelve-well dishes in the fully supportive media (see above). The media was then changed to defined media 24 h later and any experimental component was first added at this point. The media and experimental supplement were changed daily.
Cells were routinely harvested for qRT-PCR analysis 14 days after the first addition of the experimental compound.
Total RNA was extracted using QIAGEN RNeasy kits (Qiagen Inc, Valencia, Calif., http://www.qiagen.com) and DNaseI treatment was performed using Turbo DNA-Free (Ambion). The absence of genomic DNA was confirmed by quantitative PCR (qPCR) (see below) using glyceraldehyde-3-phosphate dehydrogenase (GAPDH) Taqman primers and probe (MWG). cDNA was synthesized with 2 μg total RNA in 20 μl using Superscript II according to manufacturers' instructions ((Carlsbad, Calif., http://www.Invitrogen.com)). For qPCR, cDNAs were diluted 1 in 60 and 5 μl used per sample in a 15 μl total reaction volume. Platinum pPCR supermix UDG with Rox (Carlsbad, Calif., http://www.Invitrogen.com) was used according to the manufacturer's instructions using an Applied Biosystems 7300 real time PCR system (Applied Biosystems, Warrington, UK, http://europe.appliedbiosystems.com). Each reaction contained 0.6 μM of each primer and Taqman probe (MWG). Biological and technical replicates were each performed in triplicate for each sample, standardised to the GAPDH housekeeping gene and relative expression values were calculated using the 7300 system SDS software (Applied Biosystems, Warrington, UK, http://europe.appliedbiosystems.com).
Cells were enzymatically passaged onto matrigel-coated dishes and grown for 2 weeks in defined media. After 14 days, qRT-PCR was utilised to analyse the expression of a variety of markers of pluripotency and differentiation. In the graphs in FIG. 9 the value 1 was set to the expression level of the gene in undifferentiated SA121 hESCs.
Cells were enzymatically passaged onto matrigel-coated dishes and grown for 2 weeks in defined media (1× confluent T25 tissue culture flask was passaged to 2×12 well dishes) with or without (control) compound addition. All compounds were added at 10 uM and each was performed in triplicate. Media and compounds were changed every 48 hours. After 14 days RNA was isolated and qRT-PCR was utilised to analyse the expression of NANOG and PAX6. The results are illustrated in FIGS. 13 to 17.
In the graphs in FIGS. 13, 14 15, 16 and 17 the value 1 was set relative to the expression level of the gene in the control (no compound) samples. […] This experiment allowed the effect of the EHNA-related compounds to be measured directly in comparison to EHNA. […] Those which had on effect, to these levels, on either PAX6 or NANOG were considered to have a partial-EHNA effect.

hESCs = assay: Directed monolayer neuronal differentiation with and without EHNA; format: cell-based, human
Method: […] RNA samples were taken at various time intervals and a variety of marker gene expression was measured using qRT-PCR.
In FIGS. 11a-d, the value of 1 was set to the level of expression in undifferentiated hES cells. In FIG. 12a, the value of 1 was set to the expression level in the untreated control samples.

[2] = 10 passages, immunofluorescence

CCCCCCCCCCn1cc2c(N)ncnc2n1 [HWC-3, 2-decyl-2H-pyrazolo[3,4-d]pyrimidin-4-amine]
solubility in 5% DMSO-water [1]: poor solubility

CCCCCC[C@@H]([C@@H](C)O)n1cnc2c(N)ncnc21.Cl [EHNA, erythro-9-(2-Hydroxy-3-nonyl)adenine, HCl]
maintenance of hESCs in an undifferentiated state in the absence of FGF (hESCs (SA121); 10 μM EHNA, feeder free, no exogenous FGF): can be maintained in an undifferentiated state in the absence of FGF if EHNA is present | differentiation marker SSEA1 (hESCs (SA121); [2]): negative | stem-cell markers SSEA3, SSEA4, TRA-160, TRA-180 and OCT4 (hESCs (SA121); [2]): positive | expression of the stem cell markers NANOG and POU5F1 in the absence of FGF (hESCs (SA121); FIG. 3): maintained | ability to differentiate to all three germ layers (hESCs (SA121); after at least 22 passages without FGF with EHNA): can differentiate to all three germ layers | karyotype (hESCs (SA121); passage 21, at least one replicate line): karyotypically normal | POU5F1 staining (hESCs (SA121); passage 21, immunofluorescence): all positive for POU5F1 | hESC gene expression (TLDA) (hESCs (SA121); passage 30, compared with hESCs grown with FGF without EHNA): appropriate hESC gene expression | cells positive for POU5F1 (hESC line SA461): ~100% | Full EHNA effect (SA121 hESCs; 10 uM, NANOG at least 50% of EHNA level and PAX6 50% or less of untreated control): X | SOX2 transcription in differentiating conditions (SA121 hESCs; FIG. 9a): maintained transcription at the same level as seen in undifferentiated hESCs and the untreated samples | stem cell marker expression (NANOG, ZFP42, POU5F1) in differentiating conditions (SA121 hESCs; FIG. 9a): distinctly inhibited the down-regulation of the stem cell markers NANOG, ZFP42 and POU5F1 | induction of other differentiation markers (AFP, CD34, Brachyury, PECAM1, CDX2 and FOXA2) (SA121 hESCs; data not shown): No induction of these markers | NANOG expression in differentiating conditions (SA121 hESCs; relative to untreated control): clearly maintains a higher level of NANOG than the untreated control | PAX6 expression in differentiating conditions (SA121 hESCs; HCl): inhibited the rise of PAX6 expression levels; also recorded: inhibits the onset of the differentiation marker PAX6 | cells staining positive for POU5F1 versus untreated differentiation (hESCs; 4 weeks (28 days) of neuronal differentiation): At least 10 times | PAX6 levels relative to the control differentiation (hESCs; 4 weeks of differentiation (passage at 2 weeks)): > 50% | levels of the stem cells markers NANOG and ZFP42 (hESCs; 4 weeks of differentiation, versus control): considerably higher levels | effect on PAX6 / neuronal marker expression (hESCs; early neuronal differentiation, qRT-PCR, HCl): delays the onset and reduces the amount of neuronal marker expression; also recorded: delay or reduce the level of expression | expression levels of the stem cell genes POU5F1, NANOG and ZFP42 (hESCs; first 2 weeks of neuronal differentiation, qRT-PCR): maintained largely at undifferentiated levels
